Results as given in patent US12471596B2 (priority 2019, dated 2025).

These molecules were tested on Phytophthora infestans (assay: microbe, parasite or virus in culture). Conditions: in Secale cereale, 168 h, read-out: control compared to the untreated check.
Format: cell-based

**Q.** How did the inhibition of growth at 30 ppm turn out when `O=C(COc1nccnc1C(F)(F)F)N1CCC(c2nc(C3=NOC(c4c(Cl)cccc4C(F)(F)F)C3)cs2)CC1` (centres unmarked) [Compound 4, 1-(4-(4-(5-(2-chloro-6-(trifluoromethyl)phenyl)-4,5-dihydroisoxazol-3-yl)thiazol-2-yl)piperidin-1-yl)-2-((3-(trifluoromethyl)pyrazin-2-yl)oxy)ethan-1-one] was run?
**A.** ≥ 70%

**Q.** With `O=C(COc1nccnc1C(F)(F)F)N1CCC(c2nc(C3=NOC(c4c(F)cccc4F)C3)cs2)CC1` (centres unmarked) [Compound 5, 1-(4-(4-(5-(2,6-difluorophenyl)-4,5-dihydroisoxazol-3-yl)thiazol-2-yl)piperidin-1-yl)-2-((3-(trifluoromethyl)pyrazin-2-yl)oxy)ethan-1-one] as the molecule, how does the inhibition of growth at 30 ppm read?
**A.** ≥ 70%

**Q.** `CS(=O)(=O)Oc1cccc(Cl)c1C1CC(c2csc(C3CCN(C(=O)COc4nccnc4C(F)(F)F)CC3)n2)=NO1` (centres unmarked) [Compound 6, 3-chloro-2-(3-(2-(1-(2-((3-(trifluoromethyl)pyrazin-2-yl)oxy)acetyl)piperidin-4-yl)thiazol-4-yl)-4,5-dihydroisoxazol-5-yl)phenyl methanesulfonate] was tested. Which inhibition of growth at 30 ppm did it give?
**A.** ≥ 70%

**Q.** With `CS(=O)(=O)Oc1cccc(Cl)c1C1CC(c2csc(C3CCN(C(=O)COc4cc(C(F)(F)F)ncn4)CC3)n2)=NO1` (centres unmarked) [Compound 7, 3-chloro-2-(3-(2-(1-(2-((6-(trifluoromethyl)pyrimidin-4-yl)oxy)acetyl)piperidin-4-yl)thiazol-4-yl)-4,5-dihydroisoxazol-5-yl)phenyl methanesulfonate] as the molecule, how does the inhibition of growth at 30 ppm read?
**A.** ≥ 70%

**Q.** How did the inhibition of growth at 30 ppm turn out when `O=C(COc1nccnc1C(F)(F)F)N1CCC(c2csc(C3=NOC(c4c(Cl)cc(Cl)cc4Cl)C3)n2)CC1` (centres unmarked) [Compound 8, 1-(4-(2-(5-(2,4,6-trichlorophenyl)-4,5-dihydroisoxazol-3-yl)thiazol-4-yl)piperidin-1-yl)-2-((3-(trifluoromethyl)pyrazin-2-yl)oxy)ethan-1-one] was run?
**A.** ≥ 70%

**Q.** For `COc1ncc(OCC(=O)N2CCC(c3nc(C4=NOC(c5c(Cl)cccc5C(F)(F)F)C4)cs3)CC2)cn1` (centres unmarked) [Compound 137, 1-(4-(4-(5-(2-chloro-6-(trifluoromethyl)phenyl)-4,5-dihydroisoxazol-3-yl)thiazol-2-yl)piperidin-1-yl)-2-((2-methoxypyrimidin-5-yl)oxy)ethan-1-one], which inhibition of growth at 30 ppm is on record?
**A.** ≥ 70%

**Q.** `COc1ncc(OCC(=O)N2CCC(c3nc(C4=NOC(c5c(O)cccc5Cl)C4)cs3)CC2)cn1` (centres unmarked) [Compound 138, 1-(4-(4-(5-(2-chloro-6-hydroxyphenyl)-4,5-dihydroisoxazol-3-yl)thiazol-2-yl)piperidin-1-yl)-2-((2-methoxypyrimidin-5-yl)oxy)ethan-1-one] was tested. Which inhibition of growth at 30 ppm did it give?
**A.** ≥ 70%

**Q.** Which inhibition of growth at 30 ppm does the source give for `COc1ncc(OCC(=O)N2CCC(c3nc(C4=NOC(c5c(F)cccc5F)C4)cs3)CC2)cn1` (centres unmarked) [Compound 139, 1-(4-(4-(5-(2,6-difluorophenyl)-4,5-dihydroisoxazol-3-yl)thiazol-2-yl)piperidin-1-yl)-2-((2-methoxypyrimidin-5-yl)oxy)ethan-1-one] here?
**A.** ≥ 70%

**Q.** With `CSc1nccnc1OCC(=O)N1CCC(c2nc(C3=NOC(c4c(F)cccc4F)C3)cs2)CC1` (centres unmarked) [Compound 140, 1-(4-(4-(5-(2,6-difluorophenyl)-4,5-dihydroisoxazol-3-yl)thiazol-2-yl)piperidin-1-yl)-2-((3-(methylthio)pyrazin-2-yl)oxy)ethan-1-one] as the molecule, how does the inhibition of growth at 30 ppm read?
**A.** ≥ 70%

**Q.** For `CSc1nccnc1OCC(=O)N1CCC(c2nc(C3=NOC(c4c(F)cccc4Br)C3)cs2)CC1` (centres unmarked) [Compound 141, 1-(4-(4-(5-(2-bromo-6-fluorophenyl)-4,5-dihydroisoxazol-3-yl)thiazol-2-yl)piperidin-1-yl)-2-((3-(methylthio)pyrazin-2-yl)oxy)ethan-1-one], which inhibition of growth at 30 ppm is on record?
**A.** ≥ 70%

**Q.** Which inhibition of growth at 30 ppm does the source give for `CSc1nccnc1OCC(=O)N1CCC(c2nc(C3=NOC(c4c(F)cccc4Cl)C3)cs2)CC1` (centres unmarked) [Compound 142, 1-(4-(4-(5-(2-chloro-6-fluorophenyl)-4,5-dihydroisoxazol-3-yl)thiazol-2-yl)piperidin-1-yl)-2-((3-(methylthio)pyrazin-2-yl)oxy)ethan-1-one] here?
**A.** ≥ 70%

**Q.** How did the inhibition of growth at 30 ppm turn out when `CSc1nccnc1OCC(=O)N1CCC(c2nc(C3=NOC(c4c(Cl)cccc4C(F)(F)F)C3)cs2)CC1` (centres unmarked) [Compound 143, 1-(4-(4-(5-(2-chloro-6-(trifluoromethyl)phenyl)-4,5-dihydroisoxazol-3-yl)thiazol-2-yl)piperidin-1-yl)-2-((3-(methylthio)pyrazin-2-yl)oxy)ethan-1-one] was run?
**A.** ≥ 70%

**Q.** `CSc1nccnc1OCC(=O)N1CCC(c2nc(C3=NOC(c4c(Cl)cccc4C#N)C3)cs2)CC1` (centres unmarked) [Compound 146, 3-chloro-2-(3-(2-(1-(2-((3-(methylthio)pyrazin-2-yl)oxy)acetyl)piperidin-4-yl)thiazol-4-yl)-4,5-dihydroisoxazol-5-yl)benzonitrile] was tested. Which inhibition of growth at 30 ppm did it give?
**A.** ≥ 70%

**Q.** For `CSc1nccnc1OCC(=O)N1CCC(c2nc(C3=NOC(c4c(Cl)ccc(F)c4F)C3)cs2)CC1` (centres unmarked) [Compound 147, 1-(4-(4-(5-(6-chloro-2,3-difluorophenyl)-4,5-dihydroisoxazol-3-yl)thiazol-2-yl)piperidin-1-yl)-2-((3-(methylthio)pyrazin-2-yl)oxy)ethan-1-one], which inhibition of growth at 30 ppm is on record?
**A.** ≥ 70%

**Q.** `CSc1nccnc1OCC(=O)N1CCC(c2nc(C3=NOC(c4c(Cl)cccc4Cl)C3)cs2)CC1` (centres unmarked) [Compound 148, 1-(4-(4-(5-(2,6-dichlorophenyl)-4,5-dihydroisoxazol-3-yl)thiazol-2-yl)piperidin-1-yl)-2-((3-(methylthio)pyrazin-2-yl)oxy)ethan-1-one] was tested. Which inhibition of growth at 30 ppm did it give?
**A.** ≥ 70%

**Q.** `CSc1nccnc1OCC(=O)N1CCC(c2nc(C3=NOC(c4cc(Cl)ccc4Cl)C3)cs2)CC1` (centres unmarked) [Compound 149, 1-(4-(4-(5-(2,5-dichlorophenyl)-4,5-dihydroisoxazol-3-yl)thiazol-2-yl)piperidin-1-yl)-2-((3-(methylthio)pyrazin-2-yl)oxy)ethan-1-one] was tested. Which inhibition of growth at 30 ppm did it give?
**A.** ≥ 70%

**Q.** With `O=C(CSc1ccc(C(F)(F)F)nn1)N1CCC(c2nc(C3=NOC(c4c(F)cccc4F)C3)cs2)CC1` (centres unmarked) [Compound 150, 1-(4-(4-(5-(2,6-difluorophenyl)-4,5-dihydroisoxazol-3-yl)thiazol-2-yl)piperidin-1-yl)-2-((6-(trifluoromethyl)pyridazin-3-yl)thio)ethan-1-one] as the molecule, how does the inhibition of growth at 30 ppm read?
**A.** ≥ 70%

**Q.** For `O=C(CSc1ccc(C(F)(F)F)nn1)N1CCC(c2nc(C3=NOC(c4c(F)cccc4Br)C3)cs2)CC1` (centres unmarked) [Compound 151, 1-(4-(4-(5-(2-bromo-6-fluorophenyl)-4,5-dihydroisoxazol-3-yl)thiazol-2-yl)piperidin-1-yl)-2-((6-(trifluoromethyl)pyridazin-3-yl)thio)ethan-1-one], which inhibition of growth at 30 ppm is on record?
**A.** ≥ 70%

**Q.** Which inhibition of growth at 30 ppm does the source give for `N#Cc1ccnc(OCC(=O)N2CCC(c3nc(C4=NOC(c5cc(Cl)ccc5Cl)C4)cs3)CC2)n1` (centres unmarked) [Compound 152, 2-(2-(4-(4-(5-(2,5-dichlorophenyl)-4,5-dihydroisoxazol-3-yl)thiazol-2-yl)piperidin-1-yl)-2-oxoethoxy)pyrimidine-4-carbonitrile] here?
**A.** ≥ 70%

**Q.** Which inhibition of growth at 30 ppm does the source give for `CS(=O)(=O)Oc1ccc(F)c2c1COC(c1csc(C3CCN(C(=O)COc4nccnc4C(F)(F)F)CC3)n1)OC2` (centres unmarked) [Compound 154, 9-fluoro-3-(2-(1-(2-((3-(trifluoromethyl)pyrazin-2-yl)oxy)acetyl)piperidin-4-yl)thiazol-4-yl)-1,5-dihydrobenzo[e][1,3]dioxepin-6-yl methanesulfonate] here?
**A.** ≥ 70%

**Q.** How did the inhibition of growth at 30 ppm turn out when `CS(=O)(=O)Oc1ccc(F)c2c1COC(c1csc(C3CCN(C(=O)COc4nccnc4Cl)CC3)n1)OC2` (centres unmarked) [Compound 155, 3-(2-(1-(2-((3-chloropyrazin-2-yl)oxy)acetyl)piperidin-4-yl)thiazol-4-yl)-9-fluoro-1,5-dihydrobenzo[e][1,3]dioxepin-6-yl methanesulfonate] was run?
**A.** ≥ 70%

**Q.** With `CS(=O)(=O)Oc1ccc(F)c2c1COC(c1csc(C3CCN(C(=O)COc4ccnc(C(F)(F)F)n4)CC3)n1)OC2` (centres unmarked) [Compound 156, 9-fluoro-3-(2-(1-(2-((2-(trifluoromethyl)pyrimidin-4-yl)oxy)acetyl)piperidin-4-yl)thiazol-4-yl)-1,5-dihydrobenzo[e][1,3]dioxepin-6-yl methanesulfonate] as the molecule, how does the inhibition of growth at 30 ppm read?
**A.** ≥ 70%

**Q.** With `CS(=O)(=O)c1nccnc1OCC(=O)N1CCC(c2nc(C3=NOC(c4c(F)cccc4F)C3)cs2)CC1` (centres unmarked) [Compound 157, 1-(4-(4-(5-(2,6-difluorophenyl)-4,5-dihydroisoxazol-3-yl)thiazol-2-yl)piperidin-1-yl)-2-((3-(methylsulfonyl)pyrazin-2-yl)oxy)ethan-1-one] as the molecule, how does the inhibition of growth at 30 ppm read?
**A.** ≥ 70%

**Q.** Which inhibition of growth at 30 ppm does the source give for `CSc1nccnc1OCC(=O)N1CCC(c2nc(C3=NOC(c4c(Cl)cccc4Br)C3)cs2)CC1` (centres unmarked) [Compound 158, 1-(4-(4-(5-(2-bromo-6-chlorophenyl)-4,5-dihydroisoxazol-3-yl)thiazol-2-yl)piperidin-1-yl)-2-((3-(methylthio)pyrazin-2-yl)oxy)ethan-1-one] here?
**A.** ≥ 70%

**Q.** `CS(=O)(=O)c1nccnc1OCC(=O)N1CCC(c2nc(C3=NOC(c4c(F)cccc4Br)C3)cs2)CC1` (centres unmarked) [Compound 159, 1-(4-(4-(5-(2-bromo-6-fluorophenyl)-4,5-dihydroisoxazol-3-yl)thiazol-2-yl)piperidin-1-yl)-2-((3-(methylsulfonyl)pyrazin-2-yl)oxy)ethan-1-one] was tested. Which inhibition of growth at 30 ppm did it give?
**A.** ≥ 70%

**Q.** With `COc1cc(OCC(=O)N2CCC(c3nc(C4=NOC(c5c(Cl)cccc5OS(C)(=O)=O)C4)cs3)CC2)ncn1` (centres unmarked) [Compound 160, 3-chloro-2-(3-(2-(1-(2-((6-methoxypyrimidin-4-yl)oxy)acetyl)piperidin-4-yl)thiazol-4-yl)-4,5-dihydroisoxazol-5-yl)phenyl methanesulfonate] as the molecule, how does the inhibition of growth at 30 ppm read?
**A.** ≥ 70%

Each molecule was assayed on Phytophthora infestans (assay: whole plant or invertebrate). Conditions: in Solanum lycopersicum, 24 h, read-out: control compared to the untreated check.
Format: in vivo, Phytophthora infestans on tomato plants

**Q.** With `O=C(COc1nccnc1C(F)(F)F)N1CCC(c2nc(C3=NOC(c4c(Cl)cccc4C(F)(F)F)C3)cs2)CC1` (centres unmarked) [Compound 4, 1-(4-(4-(5-(2-chloro-6-(trifluoromethyl)phenyl)-4,5-dihydroisoxazol-3-yl)thiazol-2-yl)piperidin-1-yl)-2-((3-(trifluoromethyl)pyrazin-2-yl)oxy)ethan-1-one] as the molecule, how does the pest or weed control at 50 ppm read?
**A.** ≥ 70%

**Q.** Which pest or weed control at 50 ppm does the source give for `O=C(COc1nccnc1C(F)(F)F)N1CCC(c2nc(C3=NOC(c4c(F)cccc4F)C3)cs2)CC1` (centres unmarked) [Compound 5, 1-(4-(4-(5-(2,6-difluorophenyl)-4,5-dihydroisoxazol-3-yl)thiazol-2-yl)piperidin-1-yl)-2-((3-(trifluoromethyl)pyrazin-2-yl)oxy)ethan-1-one] here?
**A.** ≥ 70%

**Q.** `CS(=O)(=O)Oc1cccc(Cl)c1C1CC(c2csc(C3CCN(C(=O)COc4nccnc4C(F)(F)F)CC3)n2)=NO1` (centres unmarked) [Compound 6, 3-chloro-2-(3-(2-(1-(2-((3-(trifluoromethyl)pyrazin-2-yl)oxy)acetyl)piperidin-4-yl)thiazol-4-yl)-4,5-dihydroisoxazol-5-yl)phenyl methanesulfonate] was tested. Which pest or weed control at 50 ppm did it give?
**A.** ≥ 70%

**Q.** For `CS(=O)(=O)Oc1cccc(Cl)c1C1CC(c2csc(C3CCN(C(=O)COc4cc(C(F)(F)F)ncn4)CC3)n2)=NO1` (centres unmarked) [Compound 7, 3-chloro-2-(3-(2-(1-(2-((6-(trifluoromethyl)pyrimidin-4-yl)oxy)acetyl)piperidin-4-yl)thiazol-4-yl)-4,5-dihydroisoxazol-5-yl)phenyl methanesulfonate], which pest or weed control at 50 ppm is on record?
**A.** ≥ 70%

**Q.** With `O=C(COc1nccnc1C(F)(F)F)N1CCC(c2csc(C3=NOC(c4c(Cl)cc(Cl)cc4Cl)C3)n2)CC1` (centres unmarked) [Compound 8, 1-(4-(2-(5-(2,4,6-trichlorophenyl)-4,5-dihydroisoxazol-3-yl)thiazol-4-yl)piperidin-1-yl)-2-((3-(trifluoromethyl)pyrazin-2-yl)oxy)ethan-1-one] as the molecule, how does the pest or weed control at 50 ppm read?
**A.** ≥ 70%

**Q.** `COc1ccnc(OCC(=O)N2CCC(c3nc(C4=NOC(c5c(Cl)cc(Cl)cc5Cl)C4)cs3)CC2)n1` (centres unmarked) [Compound 35, 2-((4-methoxypyrimidin-2-yl)oxy)-1-(4-(4-(5-(2,4,6-trichlorophenyl)-4,5-dihydroisoxazol-3-yl)thiazol-2-yl)piperidin-1-yl)ethan-1-one] was tested. Which pest or weed control at 50 ppm did it give?
**A.** ≥ 70%
